From the supplement of paper PMC6045584
± gives the standard deviation of the averaged measurements.

Legend:
FORETINIB = compound: COc1cc2c(Oc3ccc(NC(=O)C4(C(=O)Nc5ccc(F)cc5)CC4)cc3F)ccnc2cc1OCCCN1CCOCC1 [FORETINIB]; test: surviving fraction relative to DMSO-only wells; higher = less growth inhibition; settings: exposure time: 5 days
Procedure, shortened: (§1)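 A line counted only if its three screens reached replicate Pearson r >0.7 and median Z' >0.3. Tumour cells in log phase were seeded at 250–500 per well in 384-well plates and, after 24 hours, kept in continuous contact with inhibitors at 0.5, 1, 5, 10, 50, 100, 500 and 1000 nM for five days. Surviving fraction was taken from CellTiter-Glo luminescence relative to the median of DMSO-only wells.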

XAV-939 = compound: Oc1nc(-c2ccc(C(F)(F)F)cc2)nc2c1CSCC2 [XAV-939]; test: as above; settings: exposure time: 5 days
Procedure, shortened: as §1

Test System | surviving fraction (FORETINIB; 0.5 nM) | surviving fraction (FORETINIB; 1 nM) | surviving fraction (FORETINIB; 5 nM) | surviving fraction (FORETINIB; 10 nM) | surviving fraction (FORETINIB; 50 nM) | surviving fraction (FORETINIB; 100 nM) | surviving fraction (FORETINIB; 500 nM) | surviving fraction (FORETINIB; 1000 nM) | surviving fraction (XAV-939; 0.5 nM) | surviving fraction (XAV-939; 1 nM) | surviving fraction (XAV-939; 5 nM) | surviving fraction (XAV-939; 10 nM) | surviving fraction (XAV-939; 50 nM) | surviving fraction (XAV-939; 100 nM) | surviving fraction (XAV-939; 500 nM) | surviving fraction (XAV-939; 1000 nM)
CCK81 LARGE INTESTINE | 0.867 ± 0.085 | 0.729 ± 0.084 | 0.719 ± 0.059 | 0.726 ± 0.13 | 0.793 ± 0.065 | 0.757 ± 0.025 | 0.559 ± 0.043 | 0.338 ± 0.083 | – | – | – | – | – | – | – | –
G292 BONE | 1.01 ± 0.049 | 0.963 ± 0.051 | 1.04 ± 0.015 | 1.02 ± 0.046 | 0.905 ± 0.03 | 0.839 ± 0.023 | 0.351 ± 0.018 | 0.171 ± 0.02 | 0.788 ± 0.26 | 0.995 ± 0.045 | 0.96 ± 0.043 | 0.963 ± 0.066 | 0.818 ± 0.27 | 0.965 ± 0.04 | 0.917 ± 0.027 | 0.874 ± 0.046
HCC38 BREAST | 1.05 ± 0.18 | 1.01 ± 0.34 | 0.885 ± 0.2 | 1.11 ± 0.24 | 1.03 ± 0.41 | 0.901 ± 0.15 | 0.521 ± 0.077 | 0.428 ± 0.12 | 0.824 ± 0.32 | 0.996 ± 0.18 | 1.01 ± 0.2 | 1.07 ± 0.23 | 0.983 ± 0.034 | 0.925 ± 0.15 | 0.895 ± 0.085 | 0.855 ± 0.12
HCC70 BREAST | 1.08 ± 0.04 | 1.13 ± 0.023 | 1.13 ± 0.043 | 1.11 ± 0.046 | 1.17 ± 0.066 | 1.2 ± 0.044 | 1.1 ± 0.1 | 0.718 ± 0.16 | 1.02 ± 0.083 | 1.09 ± 0.11 | 1.07 ± 0.026 | 1.13 ± 0.067 | 1.13 ± 0.029 | 1.12 ± 0.11 | 0.871 ± 0.091 | 0.829 ± 0.12
HMLE3 BREAST | 1.08 ± 0.031 | 1.15 ± 0.075 | 1.11 ± 0.023 | 1.07 ± 0.011 | 0.913 ± 0.1 | 0.86 ± 0.054 | 0.558 ± 0.076 | 0.168 ± 0.023 | 0.921 ± 0.048 | 0.956 ± 0.028 | 0.97 ± 0.036 | 0.969 ± 0.059 | 0.986 ± 0.047 | 0.984 ± 0.078 | 0.775 ± 0.054 | 0.734 ± 0.037
HMT3552 BREAST | 1.02 ± 0.069 | 1.03 ± 0.05 | 1.02 ± 0.017 | 0.928 ± 0.12 | 0.955 ± 0.058 | 0.971 ± 0.013 | 0.599 ± 0.034 | 0.114 ± 0.0027 | 1.1 | 1.12 | 1.1 | 1.02 | 1.18 | 1.1 | 1.07 | 1.09
HS57T BREAST | 1.05 ± 0.066 | 1.09 ± 0.08 | 1.15 ± 0.03 | 1.07 ± 0.045 | 1.06 ± 0.06 | 1.02 ± 0.083 | 0.515 ± 0.039 | 0.47 ± 0.024 | 1.07 ± 0.023 | 1.11 ± 0.083 | 1.06 ± 0.039 | 1.02 ± 0.057 | 1.09 ± 0.046 | 1.054 ± 0.0092 | 0.889 ± 0.017 | 0.843 ± 0.075
HS578T BREAST | 1.01 ± 0.084 | 1.09 ± 0.079 | 1.2 ± 0.19 | 1.18 ± 0.038 | 1.16 ± 0.17 | 1.12 ± 0.21 | 0.655 ± 0.088 | 0.585 ± 0.039 | 1.16 ± 0.15 | 1.03 ± 0.2 | 1.14 ± 0.064 | 1.33 ± 0.062 | 1.14 ± 0.13 | 1.21 ± 0.058 | 1.09 ± 0.069 | 0.972 ± 0.016
